Data on eight molecules can be found in patent publication US8518957B2, “Methanocarba adenosine derivatives, pharmaceutical compositions, and method of reducing intraocular pressure” (The United States of America, as represented by the …, priority 2009, dated 2013).

The term Ki denotes a measure of affinity in units of concentration, obtained from inhibition or displacement. The term inhibition denotes how much of the control response was suppressed. A higher inhibition goes with strong suppression.

Assay [1] has as its target T1, hA2AAR (Homo sapiens, UniProt P29274).
T1 construct: expressed in transfected cells
The assay can be described thus: Radioligand binding at human A2A AR ([3H]CGS21680, membranes of HEK-293 cells). As to the method:
(§1) [^3H](2-[p-(2-Carboxyethyl)phenyl-ethylamino]-5′-N-ethylcarboxamido-adenosine) (37, [^3H]CGS21680, 40.5 Ci/mmol) and [^125I]N^6-(4-amino-3-iodobenzyl)adenosine-5′-N-methyluronamide (38, [^125I]I-AB-MECA, 2200 Ci/mmol) were purchased from Perkin-Elmer Life and Analytical Science (Boston, Mass.). Test compounds were prepared as 5 mM stock solutions in DMSO and stored frozen at −20° C.
(§2) CHO cells stably expressing the recombinant hA1 and hA3Rs, and HEK-293 cells stably expressing the hA2AAR were cultured in Dulbecco's modified Eagle medium (DMEM) and F12 (1:1) supplemented with 10% fetal bovine serum, 100 units/mL penicillin, 100 μg/mL streptomycin, and […] glutamine. In addition, 800 μg/mL geneticin was added to the A2A media, while 500 μg/mL hygromycin was added to the A1 and A3 media. After harvesting, cells were homogenized and suspended in PBS. Cells were then centrifuged at 240 g for 5 min, and the pellet was resuspended in 50 mM Tris-HCl buffer (pH 7.5) containing 10 mM MgCl2. The suspension was homogenized and was then ultra-centrifuged at 14,330 g for 30 min at 4° C. The resultant pellets were resuspended in Tris buffer, incubated with adenosine deaminase (3 units/mL) for 30 min at 37° C. The suspension was homogenized with an electric homogenizer for 10 sec, pipetted into 1 mL vials and then stored at −80° C. until the binding experiments were conducted. The protein concentration was measured using the BCA Protein Assay Kit from Pierce Biotechnology, Inc. (Rockford, Ill.).
(§3) Into each tube in the binding assay was added 50 μL of increasing concentrations of the test ligand in Tris-HCl buffer (50 mM, pH 7.5) containing 10 mM MgCl2, 50 μl, of the appropriate agonist radioligand, and finally 100 μL of membrane suspension. For the A1AR (22 μg of protein/tube) the radioligand used was [^3H]36 (final concentration of 3.5 nM). For the A2AAR (20 μg/tube) the radioligand used was [^3H]37 (10 nM). For the A3AR (21 μg/tube) the radioligand used was [^125I]38 (0.34 nM). Nonspecific binding was determined using a final concentration of 10 μM unlabeled 36 diluted with the buffer. The mixtures were incubated at 25° C. for 60 min in a shaking water bath. Binding reactions were terminated by filtration through Brandel GF/B filters under a reduced pressure using a M-24 cell harvester (Brandel, Gaithersburg, Md.). Filters were washed three times with 3 mL of 50 mM ice-cold Tris-HCl buffer (pH 7.5). Filters for A1 and A2AAR binding were placed in scintillation vials containing 5 mL of Hydrofluor scintillation buffer and counted using a Perkin Elmer Liquid Scintillation Analyzer (Tri-Carb 2810TR). Filters for A3AR binding were counted using a Packard Cobra II γ-counter. The Ki values were determined using GraphPad Prism for all assays.
(§4) [^3H](2-[p-(2-carboxyethyl)phenyl-ethylamino]-5′-N-ethylcarboxamido-adenosine) ([^3H]CGS21680, 40.5 Ci/mmol) and [^125I]N^6-(4-amino-3-iodobenzyl)adenosine-5′-N-methyluronamide ([^125I]I-AB-MECA, 2200 Ci/mmol) were purchased from PerkinElmer. Test compounds were prepared as 5-mM stock solutions in DMSO and stored frozen at −20° C.
(§5) Chinese hamster ovary (CHO) cells were generated by stably expressing the recombinant hA1 and hA3 and human embryonic kidney (HEK) 293 cells stably expressing the hA2AAR in DMEM and F12 (1:1) supplemented with 10% fetal bovine serum, 100 units/mL penicillin, 100 μg/mL streptomycin, and 2 μmol/mL glutamine. 800 μg/mL Geneticin were added to the A2A media and 500 μg/mL hygromycin to the A1 and A3 media. After harvesting the cells, they were homogenized with an electric homogenizer for 10 sec, pipetted them into 1-mL vials, and then stored them at −80° C. until the binding experiments were conducted. The protein concentration was measured with a BCA Protein Assay Kit from Pierce Biotechnology (Rockford, Ill.). […]

Assay [2] deals with T2, human A3AR (Homo sapiens, UniProt P0DMS8).
T2 construct: expressed in transfected cells
T2 sequence (P0DMS8 1-318): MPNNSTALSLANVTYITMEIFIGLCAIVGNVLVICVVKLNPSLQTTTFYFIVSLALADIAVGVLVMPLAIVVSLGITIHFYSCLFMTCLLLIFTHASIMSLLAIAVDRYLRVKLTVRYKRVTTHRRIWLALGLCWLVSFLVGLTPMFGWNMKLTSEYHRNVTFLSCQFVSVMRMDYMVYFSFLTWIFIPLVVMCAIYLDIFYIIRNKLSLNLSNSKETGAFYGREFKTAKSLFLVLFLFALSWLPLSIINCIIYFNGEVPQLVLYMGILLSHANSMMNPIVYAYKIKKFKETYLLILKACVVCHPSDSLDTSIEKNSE
The assay can be described thus: Radioligand binding at human A3 AR ([125I]I-AB-MECA, membranes of CHO cells). As to the method: Test compounds were prepared as 5 mM stock solutions in DMSO and stored frozen at −20° C.
as §2
as §3, with “For the A1AR (22 μg of protein/tube) the radioligand used was [^3H]36 (final concentration of 3.5 nM).” left out, “For the A3AR (21 μg/tube) the radioligand used was [^125I]38 (0.34 nM).” left out, “Filters for A1 and A2AAR binding were placed in scintillation vials containing 5 mL of Hydrofluor scintillation buffer and counted using a Perkin Elmer Liquid Scintillation Analyzer (Tri-Carb 2810TR).” left out
Test compounds were prepared as 5-mM stock solutions in DMSO and stored frozen at −20° C.
Chinese hamster ovary (CHO) cells were generated by stably expressing the recombinant hA1 and hA3 and human embryonic kidney (HEK) 293 cells stably expressing the hA2AAR in DMEM and F12 (1:1) supplemented with 10% fetal bovine serum, 100 units/mL penicillin, 100 μg/mL streptomycin, and 2 μmol/mL glutamine. 800 μg/mL Geneticin were added to the A2A media and 500 μg/mL hygromycin to the A1 and A3 media. After harvesting the cells, they were homogenized with an electric homogenizer for 10 sec, pipetted them into 1-mL vials, and then stored them at −80° C. until the binding experiments were conducted. The protein concentration was measured with a BCA Protein Assay Kit from Pierce Biotechnology (Rockford, Ill.).
Each tube in the binding assay contained 50 μL of increasing concentrations of the test ligand in Tris-HCl buffer (50 mM, pH 7.5) containing 10 mM MgCl2, 50 μL of the appropriate agonist radioligand, and 100 μL membrane suspension, added sequentially. […] For the A2AAR (20 μg/tube), the radioligand [^3H]CGS21680 was used (−10 nM). […] The mixtures were incubated at 25° C. for 60 min in a shaking water bath. The binding reactions were terminated by filtration through Brandel GF/B filters under a reduced pressure with a M-24 cell harvester (Brandel, Gaithersburg, Md.). Filters were washed three times with 3 mL 50-mM ice-cold Tris-HCl buffer (pH 7.5). […] The filters were counted for A3AR binding with a Packard Cobra II γ-counter (PerkinElmer). The Ki values were determined with GraphPad Prism for all assays.

Assay [3] deals with T2, human A3AR. The assay can be described thus: Cyclic AMP accumulation assay: inhibition of forskolin-stimulated cyclic AMP production in AR-transfected CHO cells. It counts as cell-based. As to conditions: at 10 μM, in comparison to the maximal effect of full agonist NECA at 10 μM. As to the method:
Intracellular cyclic AMP levels were measured with a competitive protein binding method. […] CHO cells that expressed the recombinant human A3AR were harvested by trypsinization. After centrifugation and resuspended in medium, cells were planted in 24-well plates in 1.0 mL medium. After 24 h, the medium was removed and cells were washed three times with 1 mL DMEM, containing 50 mM HEPES, pH 7.4. […] After 45 min forskolin (10 μM) was added to the medium, and incubation was continued for an additional 15 min. […] The cell lysate was resuspended and stored at −20° C. For determination of cyclic AMP production, protein kinase A (PKA) was incubated with [^3H]cyclic AMP (2 nM) in K2HPO4/EDTA buffer (K2HPO4, 150 mM; EDTA, 10 mM), 20 μL of the cell lysate, and 30 μL 0.1 M HCl or 50 μL of cyclic AMP solution (0-16 pmol/200 μL for standard curve). Bound radioactivity was separated by rapid filtration through Whatman GF/C filters and washed once with cold buffer. Bound radioactivity was measured by liquid scintillation spectrometry.
Bound radioactivity was separated by rapid filtration through Whatman GF/C filters and washed the filters once with cold buffer. Bound radioactivity was measured with liquid scintillation spectrometry.

Assay [4] deals with T1, hA2AAR. Conditions: at 10 μM; model compounds; values from Tosh et al. and Melman et al.; cited from earlier work.
In another assay the target is T3, human A1 AR (Homo sapiens, UniProt P30542).
T3 construct: expressed in transfected cells
T3 sequence (P30542 1-326): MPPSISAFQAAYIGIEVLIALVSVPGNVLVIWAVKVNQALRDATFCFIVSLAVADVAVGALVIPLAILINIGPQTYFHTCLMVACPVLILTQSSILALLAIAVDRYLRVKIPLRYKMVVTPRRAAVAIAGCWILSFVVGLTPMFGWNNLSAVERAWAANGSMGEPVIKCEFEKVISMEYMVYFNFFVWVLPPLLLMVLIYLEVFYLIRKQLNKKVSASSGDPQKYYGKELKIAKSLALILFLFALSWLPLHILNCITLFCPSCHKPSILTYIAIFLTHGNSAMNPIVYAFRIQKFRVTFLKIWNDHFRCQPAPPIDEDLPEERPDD
The assay can be described thus: Radioligand binding at human A1 AR ([3H]NECA, membranes of CHO cells). As to the method: as §1, §2, §3, §4, §5

The mark [5] stands for this setting: Example 7, agonist radioligand [125I]47, read-out: AR Affinity Ki, nM, A3.

Each structure is given as a SMILES string. Read-outs that look alike come from different tables or passages of the source.

T1 sequence (P29274 whole entry): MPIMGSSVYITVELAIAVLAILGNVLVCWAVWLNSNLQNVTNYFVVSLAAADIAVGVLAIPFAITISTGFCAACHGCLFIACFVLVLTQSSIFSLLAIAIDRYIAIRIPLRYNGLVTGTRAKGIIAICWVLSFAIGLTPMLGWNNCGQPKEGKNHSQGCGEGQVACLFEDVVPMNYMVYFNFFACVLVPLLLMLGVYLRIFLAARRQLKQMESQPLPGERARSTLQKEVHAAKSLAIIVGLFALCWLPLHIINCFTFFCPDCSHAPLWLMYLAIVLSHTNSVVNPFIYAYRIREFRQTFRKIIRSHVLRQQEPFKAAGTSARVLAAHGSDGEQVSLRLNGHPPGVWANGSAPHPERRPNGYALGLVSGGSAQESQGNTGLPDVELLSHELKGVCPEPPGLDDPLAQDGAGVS

Turning to `C#CCCCC#Cc1nc(NCc2cccc(Cl)c2)c2ncn(C3C(O)C(O)C4(C(=O)NC)CC34)c2n1` (stereo not drawn) [Compound 8, (1′S, 2′R, 3′S, 4′S, 5′S)-4′-[6-(3-Chlorobenzylamino)-2-(1,6-heptadiynyl)-9H-purin-9-yl]-2′,3′-dihydroxybicyclo[3.1.0]hexane-1′-carboxylic acid N-methylamide], the Ki on hA2AAR [1] ([3H]37, HEK293 cells, read-out: Affinity (Ki, nM), A2A) was found to be 4330 ± 500 nM; on human A3AR [2] ([125I]38, CHO cells, read-out: Affinity (Ki, nM), A3) it was 23.6 ± 3.9 nM. For the same molecule, the “% Inhibition of cAMP formation at hA3 AR” value at human A3AR [3] worked out at 18.3 ± 7.6%.
On to `CCCC#Cc1nc(NCc2cccc(Cl)c2)c2ncn(C3C(O)C(O)C4(C(=O)NC)CC34)c2n1` (stereo not shown) [Compound 104b], for which the “% inhibition, A2A” value at hA2AAR [4] is “(80%)”.
Turning to `O=[N+]([O-])c1cc(-n2cc(CCCCCC#Cc3cccc(CNc4nc(Cl)nc5c4ncn5[C@H]4[C@H](O)[C@H](O)[C@@H]5C[C@@H]54)c3)nn2)ccc1F` [Compound 216, (1R,2R,3S,4R,5S)-4-(2-Chloro-6-(3-(7-(1-(4-fluoro-3-nitrophenyl)-1H-1,2,3-triazol-4-yl)hept-1-ynyl)benzylamino)-9H-purin-9-yl)bicyclo[3.1.0]hexane-2,3-diol], the results for the inhibition at 10 µM on hA2AAR [1] and at human A1 AR were 18% and 29.5%, respectively. Also, the Ki at human A3AR [2] (setting [5]) came out at 521 ± 250 nM.
As for `CNC(=O)[C@@]12C[C@@H]1[C@@H](n1cnc3c(NCc4cn(-c5ccc(F)c([N+](=O)[O-])c5)nn4)nc(Cl)nc31)[C@H](O)[C@@H]2O` [Compound 219a, (1S,2R,3S,4R,5S)-4-(2-Chloro-6-((1-(4-fluoro-3-nitrophenyl)-1H-1,2,3-triazol-4-yl)methylamino)-9H-purin-9-yl)-2,3-dihydroxy-N-methylbicyclo[3.1.0]hexane-1-carboxamide], the values for the inhibition at 10 µM at hA2AAR [1] and at human A1 AR were 19.3% and 38%, respectively. Further, the Ki on human A3AR [2] (setting [5]) was determined as 9.1 ± 1.9 nM.
As for `CNC(=O)[C@@]12C[C@@H]1[C@@H](n1cnc3c(NCc4cn(C56CC7CC(CC(C7)C5)C6)nn4)nc(Cl)nc31)[C@H](O)[C@@H]2O` [Compound 220, (1S,2R,3S,4R,5S)-4-(2-Chloro-6-((1-(adamantyl)-1H-1,2,3-triazol-4-yl)methylamino)-9H-purin-9-yl)-2,3-dihydroxy-N-methylbicyclo[3.1.0]hexane-1-carboxamide], the inhibition at 10 µM worked out at 4.9% on hA2AAR [1] and 38.4% at human A1 AR. For the same molecule, the inhibition constant Ki on human A3AR [2] (setting [5]) came to 38.1 ± 14.4 nM.
With `C#CCNc1nc(Cl)nc2c1ncn2[C@H]1[C@H](O)[C@H](O)[C@@H]2C[C@@H]21` [Compound 222, (1R,2R,3S,4R,5S)-4-(2-Chloro-6-(prop-2-ynylamino)-9H-purin-9-yl) bicycle[3.1.0]hexane-2,3-diol], the inhibition at 10 µM at hA2AAR [1] is 28.3%. The Ki stood at 5870 ± 830 nM at human A1 AR (Example 7, agonist radioligand [3H]45, read-out: AR Affinity Ki, nM, A1) and 302 ± 26 nM at human A3AR [2] (setting [5]).
Take `O=[N+]([O-])c1cc(-n2cc(CNc3nc(Cl)nc4c3ncn4[C@H]3[C@H](O)[C@H](O)[C@@H]4C[C@@H]43)nn2)ccc1F` [Compound 223]: the inhibition at 10 µM was determined as 19.2% at hA2AAR [1] and 44.7% on human A1 AR. The Ki at human A3AR [2] (setting [5]) is 388 ± 170 nM.
In the case of `O[C@@H]1[C@H](O)[C@@H]2C[C@@H]2[C@H]1n1cnc2c(NCc3cn(C45CC6CC(CC(C6)C4)C5)nn3)nc(Cl)nc21` [Compound 224], the inhibition at 10 µM stood at 22.5% on hA2AAR [1] and 38.6% at human A1 AR. At human A3AR [2] (setting [5]), the Ki stood at 2190 ± 160 nM.
